From the NIST ThermoML archive (doi:10.1021/je2006049)
Where “and” joins values, the source holds several entries; their conditions need not be identical. Equal values may be shown once.

Settings: Liquid; for electrical conductivity / mass density: 101.33 kPa; for electrical conductivity: Alternating current cell with electrodes; for mass density: Vibrating tube method

CCCC[N+]1(C)CCCC1.O=S(=O)([N-]S(=O)(=O)C(F)(F)F)C(F)(F)F
Settings | viscosity
273.15 K, 100 kPa, Falling or rolling sphere viscometry | 319.28 mPa·s and 318.72 mPa·s and 320.44 mPa·s
273.15 K, 101.3 kPa, Concentric cylinders viscometry | 322.4 mPa·s
273.15 K, 820 kPa, Falling or rolling sphere viscometry | 318.29 mPa·s
273.15 K, 10850 kPa, Falling or rolling sphere viscometry | 378.12 mPa·s
273.15 K, 20760 kPa, Falling or rolling sphere viscometry | 441.79 mPa·s
273.15 K, 32190 kPa, Falling or rolling sphere viscometry | 542.04 mPa·s
273.15 K, 40240 kPa, Falling or rolling sphere viscometry | 621.51 mPa·s
273.15 K, 45000 kPa, Falling or rolling sphere viscometry | 677.25 mPa·s
273.15 K, 50310 kPa, Falling or rolling sphere viscometry | 729.34 mPa·s
273.15 K, 59200 kPa, Falling or rolling sphere viscometry | 837.7 mPa·s
273.15 K, 60550 kPa, Falling or rolling sphere viscometry | 855.99 mPa·s
273.15 K, 69280 kPa, Falling or rolling sphere viscometry | 983.67 mPa·s
273.15 K, 70310 kPa, Falling or rolling sphere viscometry | 1008.7 mPa·s
273.15 K, 80520 kPa, Falling or rolling sphere viscometry | 1184.8 mPa·s
278.15 K, 100 kPa, Falling or rolling sphere viscometry | 224.84 mPa·s and 224.85 mPa·s
278.15 K, 101.3 kPa, Concentric cylinders viscometry | 230.9 mPa·s
283.15 K, 100 kPa, Falling or rolling sphere viscometry | 167.09 mPa·s [middle of 4 runs]
283.15 K, 101.3 kPa, Concentric cylinders viscometry | 170.1 mPa·s
283.15 K, 10140 kPa, Falling or rolling sphere viscometry | 192.43 mPa·s
283.15 K, 19970 kPa, Falling or rolling sphere viscometry | 222.97 mPa·s
283.15 K, 29990 kPa, Falling or rolling sphere viscometry | 259.18 mPa·s
283.15 K, 40620 kPa, Falling or rolling sphere viscometry | 303.3 mPa·s
283.15 K, 50520 kPa, Falling or rolling sphere viscometry | 350.45 mPa·s
283.15 K, 59770 kPa, Falling or rolling sphere viscometry | 398.94 mPa·s
283.15 K, 70190 kPa, Falling or rolling sphere viscometry | 463.39 mPa·s
283.15 K, 78710 kPa, Falling or rolling sphere viscometry | 517.26 mPa·s
283.15 K, 89720 kPa, Falling or rolling sphere viscometry | 620.7 mPa·s
283.15 K, 89960 kPa, Falling or rolling sphere viscometry | 604.22 mPa·s
283.15 K, 100390 kPa, Falling or rolling sphere viscometry | 708.87 mPa·s and 702.53 mPa·s
288.15 K, 101.3 kPa, Concentric cylinders viscometry | 128.4 mPa·s
293.15 K, 100 kPa, Falling or rolling sphere viscometry | 99.81 mPa·s and 99.92 mPa·s
293.15 K, 101.3 kPa, Concentric cylinders viscometry | 98.95 mPa·s and 99 mPa·s
298.15 K, 100 kPa, Falling or rolling sphere viscometry | 76.63 mPa·s [middle of 5 runs]
298.15 K, 101.3 kPa, Concentric cylinders viscometry | 77.83 mPa·s
298.15 K, 860 kPa, Falling or rolling sphere viscometry | 77.22 mPa·s
298.15 K, 10370 kPa, Falling or rolling sphere viscometry | 87.96 mPa·s
298.15 K, 20760 kPa, Falling or rolling sphere viscometry | 100.93 mPa·s
298.15 K, 30700 kPa, Falling or rolling sphere viscometry | 114.96 mPa·s
298.15 K, 40660 kPa, Falling or rolling sphere viscometry | 130.58 mPa·s
298.15 K, 50630 kPa, Falling or rolling sphere viscometry | 148.26 mPa·s
298.15 K, 60600 kPa, Falling or rolling sphere viscometry | 167.95 mPa·s
298.15 K, 70390 kPa, Falling or rolling sphere viscometry | 189.46 mPa·s
298.15 K, 80180 kPa, Falling or rolling sphere viscometry | 213.75 mPa·s
298.15 K, 90600 kPa, Falling or rolling sphere viscometry | 242.18 mPa·s
298.15 K, 100230 kPa, Falling or rolling sphere viscometry | 271.62 mPa·s
303.15 K, 100 kPa, Falling or rolling sphere viscometry | 62.82 mPa·s and 62.63 mPa·s
303.15 K, 101.3 kPa, Concentric cylinders viscometry | 62.26 mPa·s
313.15 K, 100 kPa, Falling or rolling sphere viscometry | 41.27 mPa·s and 41.24 mPa·s
313.15 K, 101.3 kPa, Concentric cylinders viscometry | 41.72 mPa·s
323.15 K, 100 kPa, Falling or rolling sphere viscometry | 29.04 mPa·s [middle of 5 runs]
323.15 K, 101.3 kPa, Concentric cylinders viscometry | 29.42 mPa·s
323.15 K, 10520 kPa, Falling or rolling sphere viscometry | 32.31 mPa·s
323.15 K, 20600 kPa, Falling or rolling sphere viscometry | 36.21 mPa·s
323.15 K, 29970 kPa, Falling or rolling sphere viscometry | 40.16 mPa·s
323.15 K, 39910 kPa, Falling or rolling sphere viscometry | 44.72 mPa·s
323.15 K, 50590 kPa, Falling or rolling sphere viscometry | 50.06 mPa·s
323.15 K, 60550 kPa, Falling or rolling sphere viscometry | 55.73 mPa·s
323.15 K, 70490 kPa, Falling or rolling sphere viscometry | 61.77 mPa·s
323.15 K, 80450 kPa, Falling or rolling sphere viscometry | 68.24 mPa·s
323.15 K, 90470 kPa, Falling or rolling sphere viscometry | 75.36 mPa·s
323.15 K, 100400 kPa, Falling or rolling sphere viscometry | 82.99 mPa·s
333.15 K, 100 kPa, Falling or rolling sphere viscometry | 21.31 mPa·s and 21.3 mPa·s
333.15 K, 101.3 kPa, Concentric cylinders viscometry | 21.64 mPa·s
343.15 K, 100 kPa, Falling or rolling sphere viscometry | 16.14 mPa·s and 16.13 mPa·s
343.15 K, 101.3 kPa, Concentric cylinders viscometry | 16.46 mPa·s
348.15 K, 100 kPa, Falling or rolling sphere viscometry | 14.07 mPa·s and 14.06 mPa·s
348.15 K, 10850 kPa, Falling or rolling sphere viscometry | 15.68 mPa·s
348.15 K, 11990 kPa, Falling or rolling sphere viscometry | 15.82 mPa·s
348.15 K, 21760 kPa, Falling or rolling sphere viscometry | 17.54 mPa·s
348.15 K, 29210 kPa, Falling or rolling sphere viscometry | 18.8 mPa·s
348.15 K, 38020 kPa, Falling or rolling sphere viscometry | 20.38 mPa·s
348.15 K, 49600 kPa, Falling or rolling sphere viscometry | 22.9 mPa·s
348.15 K, 64630 kPa, Falling or rolling sphere viscometry | 26.45 mPa·s
348.15 K, 73060 kPa, Falling or rolling sphere viscometry | 28.44 mPa·s
348.15 K, 85040 kPa, Falling or rolling sphere viscometry | 31.53 mPa·s
348.15 K, 102920 kPa, Falling or rolling sphere viscometry | 36.8 mPa·s
353.15 K, 100 kPa, Falling or rolling sphere viscometry | 12.73 mPa·s and 12.67 mPa·s
353.15 K, 101.3 kPa, Concentric cylinders viscometry | 12.91 mPa·s
363.15 K, 101.3 kPa, Concentric cylinders viscometry | 10.35 mPa·s

Settings | electrical conductivity [S/m] | mass density
273.15 K | 0.0741 | 1416.89 kg/m3 and 1416.94 kg/m3 and 1416.7 kg/m3
278.15 K | 0.101 | 1412.1 kg/m3
283.15 K | 0.134 | 1407.76 kg/m3 and 1407.82 kg/m3 and 1407.6 kg/m3
288.15 K | 0.174 | 1403.39 kg/m3 and 1403.2 kg/m3
293.14 K | 0.221 | –
293.15 K | – | 1398.92 kg/m3 [middle of 4 runs]
298.14 K | 0.276 | –
298.15 K | 0.275 | 1394.51 kg/m3 and 1394.4 kg/m3
303.15 K | 0.338 | 1390.1 kg/m3 and 1390.17 kg/m3 and 1390 kg/m3
313.15 K | 0.486 | 1381.31 kg/m3 and 1381.38 kg/m3 and 1381.2 kg/m3
323.14 K | 0.667 | –
323.15 K | – | 1372.58 kg/m3 and 1372.67 kg/m3 and 1372.5 kg/m3
333.15 K | 0.879 | 1363.89 kg/m3 and 1363.97 kg/m3 and 1363.9 kg/m3
343.14 K | 1.12 | –
343.15 K | – | 1355.26 kg/m3 and 1355.36 kg/m3 and 1355.3 kg/m3
353.15 K | 1.39 | 1346.69 kg/m3 and 1346.78 kg/m3 and 1346.8 kg/m3
363.15 K | – | 1338.16 kg/m3 and 1338.25 kg/m3 and 1338.4 kg/m3
